Assay results reported in US20130102595A1 (Curis, Inc., priority 2011, published 2013).

Experiments:
[1] = system: HDACs (HeLa cell nuclear extracts); assay: HDAC enzymatic activity, Biomol Color de Lys system; assay type: biochemical; conditions: 1 hour, 25° C.
Procedure, shortened: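 IC50 from sigmoidal fit of developer-terminated fluorescence (ex 350-380/em 440-460 nm). Reaction: 1 h at room temperature (25 °C), HeLa nuclear extract as HDAC source, artificial substrate, buffer of 50 mM Tris/Cl pH 8.0 with 137 mM NaCl, 2.7 mM KCl and 1 mM MgCl2.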

[2] = molecular target: T1, PI3Kα (p110α/p85α) (Homo sapiens, UniProt P42336); assay: PI3Kα ADP-Glo assay; assay type: biochemical; conditions: 20 μM PIP2, 10 μM ATP, 30 minutes
T1 construct: GST (N); made in house; host or cells: Baculovirus-infected Sf9 cells
T1 sequence (P42336 whole entry): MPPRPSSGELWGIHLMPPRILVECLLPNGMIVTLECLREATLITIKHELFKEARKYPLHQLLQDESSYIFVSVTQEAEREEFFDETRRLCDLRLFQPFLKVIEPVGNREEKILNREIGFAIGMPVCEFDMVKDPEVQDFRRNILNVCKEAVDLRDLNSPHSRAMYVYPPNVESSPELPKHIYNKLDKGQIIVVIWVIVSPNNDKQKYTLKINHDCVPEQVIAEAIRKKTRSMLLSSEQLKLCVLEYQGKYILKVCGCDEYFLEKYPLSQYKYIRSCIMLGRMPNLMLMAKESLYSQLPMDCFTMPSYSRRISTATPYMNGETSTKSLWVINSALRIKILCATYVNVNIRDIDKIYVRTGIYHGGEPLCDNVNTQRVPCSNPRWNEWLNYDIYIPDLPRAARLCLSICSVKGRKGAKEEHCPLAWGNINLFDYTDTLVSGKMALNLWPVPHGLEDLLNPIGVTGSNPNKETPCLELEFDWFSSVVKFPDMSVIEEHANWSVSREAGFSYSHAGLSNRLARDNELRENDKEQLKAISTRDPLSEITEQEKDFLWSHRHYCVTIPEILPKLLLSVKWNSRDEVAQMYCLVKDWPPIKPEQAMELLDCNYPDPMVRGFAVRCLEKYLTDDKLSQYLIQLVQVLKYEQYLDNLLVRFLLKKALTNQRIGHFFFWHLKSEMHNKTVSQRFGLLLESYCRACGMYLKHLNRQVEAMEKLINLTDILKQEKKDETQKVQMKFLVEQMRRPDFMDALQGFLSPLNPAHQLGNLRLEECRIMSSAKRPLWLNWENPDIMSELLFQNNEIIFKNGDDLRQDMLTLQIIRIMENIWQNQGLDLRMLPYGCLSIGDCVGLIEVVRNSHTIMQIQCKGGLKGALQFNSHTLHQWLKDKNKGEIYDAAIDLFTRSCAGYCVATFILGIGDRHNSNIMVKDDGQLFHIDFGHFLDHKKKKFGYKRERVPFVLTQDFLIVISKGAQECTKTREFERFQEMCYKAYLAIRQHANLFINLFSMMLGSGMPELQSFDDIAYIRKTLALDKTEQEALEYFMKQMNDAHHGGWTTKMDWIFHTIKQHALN
T1 sequence (P27986 whole entry partner): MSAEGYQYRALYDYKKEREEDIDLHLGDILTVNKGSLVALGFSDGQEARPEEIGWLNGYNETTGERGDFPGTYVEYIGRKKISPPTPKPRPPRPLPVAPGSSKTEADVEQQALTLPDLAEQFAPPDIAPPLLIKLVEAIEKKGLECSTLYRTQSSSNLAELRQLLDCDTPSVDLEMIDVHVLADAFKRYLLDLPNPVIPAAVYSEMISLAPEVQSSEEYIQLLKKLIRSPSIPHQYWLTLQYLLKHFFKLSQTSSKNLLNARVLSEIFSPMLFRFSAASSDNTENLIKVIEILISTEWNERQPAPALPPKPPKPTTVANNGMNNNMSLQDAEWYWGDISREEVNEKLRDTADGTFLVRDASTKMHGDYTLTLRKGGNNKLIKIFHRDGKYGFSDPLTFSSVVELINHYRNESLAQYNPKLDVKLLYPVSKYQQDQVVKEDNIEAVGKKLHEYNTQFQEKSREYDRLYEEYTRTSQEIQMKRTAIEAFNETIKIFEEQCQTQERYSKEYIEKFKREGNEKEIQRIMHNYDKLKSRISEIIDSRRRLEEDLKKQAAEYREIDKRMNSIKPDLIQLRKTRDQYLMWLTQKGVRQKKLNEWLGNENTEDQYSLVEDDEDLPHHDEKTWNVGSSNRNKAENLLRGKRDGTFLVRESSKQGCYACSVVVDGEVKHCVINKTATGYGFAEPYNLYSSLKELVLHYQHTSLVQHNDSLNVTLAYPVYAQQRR
Procedure, shortened: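 Luminescent ADP-Glo detection, after depletion of residual ATP, quantified ADP made by PI3Kα phosphorylating 20 μM PIP2 at 10 μM ATP. The kinase step ran 30 min at room temperature in HEPES pH 7.4 with MgCl2, DTT and orthovanadate, using baculovirus/Sf9-expressed full-length p110α/p85α complex.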

[3] = molecular target: T2, mTor serine/threonine protein kinase (Homo sapiens, UniProt P42345); assay: mTor kinase radioisotope assay; assay type: biochemical; conditions: 70 uM ATP, 40 minutes; read-out: m-TOR IC50
T2 construct: FLAG; made in house; host or cells: Baculovirus expression system in Sf21 cells
Description: (F) an In Vitro Assay which-Determines the Ability of a Test Compound to Inhibit mTor Serine/Threonine Protein Kinase.
The ability of compounds to inhibit mTor activity was assayed using standard radioisotope assay for kinase. Briefly, FLAG-tagged, recombinant full-length human mTor (GenBank accession No. NM_004958) was expressed using baculovirus expression system in Sf21 cells and purified using antibody affinity column. Purified enzyme was incubated with c-terminal fragment of p70S6K as it's substrate in the presence of ATP. p33 ATP tracers were included in the assay to monitor the enzyme activity. Final assay condition was with 50 mM HEPES pH 7.5, 1 mM EGTA, 0.01% Tween 20, 2 mg/ml substrate, 3 mM Manganese Chloride and 70 uM of ATP and was carried out at room temperature for 40 minutes. The reaction was then stopped by the addition of 3% phosphoric acid solution. 10 ul of the reaction was spotted onto a P30 filtermat and washed three times for 5 minutes in 75 mM phosphoric acid and once in methanol prior to drying and scintillation counting. Different concentrations of compounds were added to reaction to assess the activity of compounds to inhibit mTor kinase. IC50 was calculated using Prism software with sigmoidal dose-response curve fitting.

[4] = system: CFPAC-1; assay: Cell proliferation assay (CellTiter-Glo); assay type: cell-based; conditions: Homo sapiens, Pancreas, 72 hours, 0.5% fetal bovine serum, read-out: antiproliferative activity IC50, CFPAC-1
Description: (§1) Cell Proliferation Assay:
(§2) Cancer cell lines were plated at 5,000 to 10,000 per well in 96-well flat bottomed plates with various concentration of compounds. The cells were incubated with compounds for 72 hours in the presence of 0.5% of fetal bovine serum. Growth inhibition was accessed by adenosine triphosphate (ATP) content assay using Promega CellTiter-Glo kit. Promega CellTiter-Glo kit is an ATP monitoring system based on firefly luciferase. Briefly, 16 μl of mammalian cell lysis and substrate solution was added to 84 μl of culture medium per well to lyse the cells and stabilize the ATP. The mixture was shaken and incubated for 30 minutes and subsequently the luminescence was measured.

[5] = system: CaPan2; assay: Cell proliferation assay (CellTiter-Glo); assay type: cell-based; conditions: Homo sapiens, Capan-2; Pancreas; 72 hours, 0.5% fetal bovine serum; read-out: antiproliferative activity IC50, CaPan2
Description: as §1, §2

[6] = system: Calu6; assay: Cell proliferation assay (CellTiter-Glo); assay type: cell-based; conditions: Homo sapiens, Calu-6; NSCLC; 72 hours, 0.5% fetal bovine serum; read-out: antiproliferative activity IC50, Calu6
Description: as §1, §2

[7] = system: MDA-MB-231; assay: Cell proliferation assay (CellTiter-Glo); assay type: cell-based; conditions: Homo sapiens, Breast, 72 hours, 0.5% fetal bovine serum, read-out: antiproliferative activity IC50, MDA-MB-231
Description: as §1, §2

[8] = system: MiaPaca1; assay: Cell proliferation assay (CellTiter-Glo); assay type: cell-based; conditions: Pancreas; 72 hours, 0.5% fetal bovine serum; read-out: antiproliferative activity IC50, MiaPaca1
Description: as §1, §2

[9] = system: PANC-1; assay: Cell proliferation assay (CellTiter-Glo); assay type: cell-based; conditions: Homo sapiens, Pancreas, 72 hours, 0.5% fetal bovine serum, read-out: antiproliferative activity IC50, PANC-1
Description: as §1, §2

[10] = system: SW1990; assay: Cell proliferation assay (CellTiter-Glo); assay type: cell-based; conditions: Homo sapiens, Pancreas, 72 hours, 0.5% fetal bovine serum, read-out: antiproliferative activity IC50, SW1990
Description: as §1, §2

[11] = system: WiDr; assay: Cell proliferation assay (CellTiter-Glo); assay type: cell-based; conditions: Homo sapiens, Colon, 72 hours, 0.5% fetal bovine serum, read-out: antiproliferative activity IC50, WiDr
Description: as §1, §2

[12] = system: A549; assay: Cell proliferation assay (CellTiter-Glo); assay type: cell-based; conditions: Homo sapiens, NSCLC, 72 hours, 0.5% fetal bovine serum, read-out: antiproliferative activity IC50, A549
Description: as §1, §2

[13] = system: H2122; assay: Cell proliferation assay (CellTiter-Glo); assay type: cell-based; conditions: Homo sapiens, NCI-H2122; NSCLC; 72 hours, 0.5% fetal bovine serum; read-out: antiproliferative activity IC50, H2122
Description: as §1, §2

[14] = system: H358; assay: Cell proliferation assay (CellTiter-Glo); assay type: cell-based; conditions: Homo sapiens, NCI-H358; NSCLC; 72 hours, 0.5% fetal bovine serum; read-out: antiproliferative activity IC50, H358
Description: as §1, §2

[15] = system: H460; assay: Cell proliferation assay (CellTiter-Glo); assay type: cell-based; conditions: Homo sapiens, NCI-H460; NSCLC; 72 hours, 0.5% fetal bovine serum; read-out: antiproliferative activity IC50, H460
Description: as §1, §2

[16] = system: HCT116; assay: Cell proliferation assay (CellTiter-Glo); assay type: cell-based; conditions: Homo sapiens, HCT-116; Colon; 72 hours, 0.5% fetal bovine serum; read-out: antiproliferative activity IC50, HCT116
Description: as §1, §2

[17] = system: H292; assay: Cell proliferation assay (CellTiter-Glo); assay type: cell-based; conditions: Homo sapiens, NCI-H292; NSCLC; 72 hours, 0.5% fetal bovine serum; read-out: antiproliferative activity IC50, H292
Description: as §1, §2

Compound | IC50 [1] | IC50 [2] | IC50 [3] | IC50 [6] | IC50 [7] | IC50 [8] | IC50 [9] | IC50 [10] | melting point | IC50 [12] | IC50 [13] | IC50 [14] | IC50 [15] | IC50 [16] | IC50 [17] | IC50 [4] | IC50 [5] | IC50 [11]
CN(Cc1cc2nc(-c3cc(O)ccc3F)nc(N3CCOCC3)c2s1)c1ncc(C(=O)NO)cn1 [Compound 292, 2-(((2-(2-Fluoro-5-hydroxyphenyl)-4-morpholinothieno[3,2-d]pyrimidin-6-yl)methyl)(methyl)amino)-N-hydroxypyrimidine-5-carboxamide] | < 0.1 µM | < 0.1 µM | < 0.1 µM | – | – | 0.01 to 0.1 µM | – | – | 250 to 255 °C | 0.1 to 1 µM | 0.01 to 0.1 µM | 0.01 to 0.1 µM | 0.01 to 0.1 µM | 0.01 to 0.1 µM | – | – | – | 0.01 to 0.1 µM
CC(O)c1cccc(-c2nc(N3CCOCC3)c3sc(CN(C)c4ncc(C(=O)NO)cn4)cc3n2)c1 (stereo not drawn) [Compound 294, N-Hydroxy-2-(((2-(3-(1-hydroxyethyl)phenyl)-4-morpholinothieno[3,2-d]pyrimidin-6-yl)methyl)(methyl)amino)pyrimidine-5-carboxamide] | < 0.1 µM | < 0.1 µM | 0.1 to 1 µM | – | – | < 0.01 µM | – | – | – | 0.01 to 0.1 µM | < 0.01 µM | < 0.01 µM | 0.01 to 0.1 µM | < 0.01 µM | 0.01 to 0.1 µM | – | – | 0.01 to 0.1 µM
C[C@H](O)c1cccc(-c2nc(N3CCOCC3)c3sc(CN(C)c4ncc(C(=O)NO)cn4)cc3n2)c1 [Compound 296, (S)—N-Hydroxy-2-(((2-(3-(1-hydroxyethyl)phenyl)-4-morpholinothieno[3,2-d]pyrimidin-6-yl)methyl)(methyl)amino)pyrimidine-5-carboxamide] | < 0.1 µM | 0.1 to 1 µM | > 10 µM | 0.01 to 0.1 µM | – | 0.01 to 0.1 µM | – | – | 168 to 172 °C | 0.01 to 0.1 µM | 0.01 to 0.1 µM | 0.01 to 0.1 µM | 0.01 to 0.1 µM | < 0.01 µM | 0.01 to 0.1 µM | – | – | < 0.01 µM
CNc1ccc(-c2nc(N3CCOCC3)c3sc(C(=O)NCC4CCN(c5ncc(C(=O)NO)cn5)CC4)cc3n2)cn1 [Compound 308, N-((1-(5-(Hydroxycarbamoyl)pyrimidin-2-yl)piperidin-4-yl)methyl)-2-(6-(methylamino)pyridin-3-yl)-4-morpholinothieno[3,2-d]pyrimidine-6-carboxamide] | < 0.1 µM | < 0.1 µM | – | – | – | 0.1 to 1 µM | – | – | 215 to 218 °C | 0.1 to 1 µM | 0.1 to 1 µM | 0.1 to 1 µM | 0.1 to 1 µM | 0.1 to 1 µM | 0.1 to 1 µM | – | – | 0.1 to 1 µM

Second part, led by results:

IC50 [1] | IC50 [2] | IC50 [3] | IC50 [6] | IC50 [7] | IC50 [8] | IC50 [9] | IC50 [10] | melting point | IC50 [12] | IC50 [13] | IC50 [14] | IC50 [15] | IC50 [16] | IC50 [17] | Compound | IC50 [4] | IC50 [5] | IC50 [11]
< 0.1 µM | < 0.1 µM | < 0.1 µM | 0.01 to 0.1 µM | 0.01 to 0.1 µM | 0.01 to 0.1 µM | 0.01 to 0.1 µM | 0.01 to 0.1 µM | 183 to 187 °C | – | – | – | – | – | – | CNc1ncc(-c2nc(N3CCOCC3)c3sc(CN(C)c4ncc(C(=O)NO)cn4)cc3n2)cn1 [Compound 116, N-hydroxy-2-(methyl((2-(2-(methylamino)pyrimidin-5-yl)-4-morpholinothieno[3,2-d]pyrimidin-6-yl)methyl)amino)pyrimidine-5-carboxamide] | 0.1 to 1 µM | 0.01 to 0.1 µM | 0.01 to 0.1 µM
< 0.1 µM | < 0.1 µM | 0.1 to 1 µM | 0.01 to 0.1 µM | 0.01 to 0.1 µM | 0.01 to 0.1 µM | 0.1 to 1 µM | 0.01 to 0.1 µM | 184 to 186 °C | – | – | – | – | – | – | Cc1ncc(-c2nc(N3CCOCC3)c3sc(CN(C)c4ncc(C(=O)NO)cn4)cc3n2)cn1 [Compound 120, N-hydroxy-2-(methyl((2-(2-methylpyrimidin-5-yl)-4-morpholinothieno[3,2-d]pyrimidin-6-yl)methyl)amino)pyrimidine-5-carboxamide] | 0.1 to 1 µM | 0.1 to 1 µM | 0.01 to 0.1 µM
< 0.1 µM | < 0.1 µM | – | 0.1 to 1 µM | 0.1 to 1 µM | 0.01 to 0.1 µM | 0.1 to 1 µM | 0.01 to 0.1 µM | 231 to 239 °C | – | – | – | – | – | – | CN(Cc1cc2nc(-c3ccc4[nH]cnc4c3)nc(N3CCOCC3)c2s1)c1ncc(C(=O)NO)cn1 [Compound 187, 2-(((2-(1H-benzo[d]imidazol-5-yl)-4-morpholinothieno[3,2-d]pyrimidin-6-yl)methyl)(methyl)amino)-N-hydroxypyrimidine-5-carboxamide] | 0.1 to 1 µM | 0.1 to 1 µM | 0.01 to 0.1 µM
< 0.1 µM | < 0.1 µM | – | – | – | 0.01 to 0.1 µM | – | – | 179 to 183 °C | 0.01 to 0.1 µM | < 0.01 µM | < 0.01 µM | 0.01 to 0.1 µM | < 0.01 µM | – | CN(Cc1cc2nc(-c3ccc(N)cc3Cl)nc(N3CCOCC3)c2s1)c1ncc(C(=O)NO)cn1 [Compound 284, 2-(((2-(4-Amino-2-chlorophenyl)-4-morpholinothieno[3,2-d]pyrimidin-6-yl)methyl)(methyl)amino)-N-hydroxypyrimidine-5-carboxamide] | – | – | 0.01 to 0.1 µM
< 0.1 µM | < 0.1 µM | – | – | – | < 0.01 µM | – | – | 148 to 152 °C | 0.01 to 0.1 µM | < 0.01 µM | < 0.01 µM | 0.01 to 0.1 µM | < 0.01 µM | < 0.01 µM | CN(Cc1cc2nc(-c3cccc(OCCO)c3)nc(N3CCOCC3)c2s1)c1ncc(C(=O)NO)cn1 [Compound 289, 2-({2-[3-(2-Hydroxy-ethoxy)-phenyl]-4-morpholin-4-yl-thieno[3,2-d]pyrimidin-6-ylmethyl}-methyl-amino)-pyrimidine-5-carboxylic acid hydroxyamide] | – | – | < 0.01 µM
